How the values were obtained:
[1] = molecular target: Rho-associated protein kinase 1 (Homo sapiens, UniProt Q13464)
[2] = molecular target: Rho-associated protein kinase 2 (Homo sapiens, UniProt O75116)
Rho-associated protein kinase 2, sequence (O75116 whole entry): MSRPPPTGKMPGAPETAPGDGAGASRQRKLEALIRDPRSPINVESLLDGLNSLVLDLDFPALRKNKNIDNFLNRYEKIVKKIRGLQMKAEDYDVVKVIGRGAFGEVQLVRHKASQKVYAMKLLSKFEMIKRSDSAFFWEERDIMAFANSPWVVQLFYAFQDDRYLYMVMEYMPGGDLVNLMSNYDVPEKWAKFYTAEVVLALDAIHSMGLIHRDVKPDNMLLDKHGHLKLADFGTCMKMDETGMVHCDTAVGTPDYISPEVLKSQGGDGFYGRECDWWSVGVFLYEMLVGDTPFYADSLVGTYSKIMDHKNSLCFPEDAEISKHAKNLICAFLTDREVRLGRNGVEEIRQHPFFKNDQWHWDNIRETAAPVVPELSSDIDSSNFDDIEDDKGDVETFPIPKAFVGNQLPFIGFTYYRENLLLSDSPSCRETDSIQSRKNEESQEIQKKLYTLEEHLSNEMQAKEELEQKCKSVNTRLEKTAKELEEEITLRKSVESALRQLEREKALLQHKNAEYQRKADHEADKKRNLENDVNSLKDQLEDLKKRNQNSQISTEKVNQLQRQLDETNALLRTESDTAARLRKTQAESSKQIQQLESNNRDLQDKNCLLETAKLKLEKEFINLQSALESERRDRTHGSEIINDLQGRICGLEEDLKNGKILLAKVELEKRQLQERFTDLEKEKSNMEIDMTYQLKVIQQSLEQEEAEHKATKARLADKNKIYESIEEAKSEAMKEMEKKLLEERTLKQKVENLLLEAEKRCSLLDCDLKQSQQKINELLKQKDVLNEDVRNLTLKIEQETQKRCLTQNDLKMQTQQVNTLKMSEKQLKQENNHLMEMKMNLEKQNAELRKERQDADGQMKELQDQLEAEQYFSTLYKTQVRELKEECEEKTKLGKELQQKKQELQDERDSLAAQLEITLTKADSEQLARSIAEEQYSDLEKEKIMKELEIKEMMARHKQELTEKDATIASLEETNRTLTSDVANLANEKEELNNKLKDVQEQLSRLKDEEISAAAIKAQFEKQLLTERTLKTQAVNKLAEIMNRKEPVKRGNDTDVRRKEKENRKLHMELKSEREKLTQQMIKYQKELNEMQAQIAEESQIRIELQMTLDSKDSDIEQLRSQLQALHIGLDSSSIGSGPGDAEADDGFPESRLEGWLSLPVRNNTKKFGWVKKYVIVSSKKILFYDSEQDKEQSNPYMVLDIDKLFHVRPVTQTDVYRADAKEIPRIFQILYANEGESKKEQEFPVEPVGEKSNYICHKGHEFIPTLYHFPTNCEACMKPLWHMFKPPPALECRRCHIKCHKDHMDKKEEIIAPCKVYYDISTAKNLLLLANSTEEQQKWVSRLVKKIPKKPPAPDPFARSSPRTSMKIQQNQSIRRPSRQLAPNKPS

Rho-associated protein kinase 1, sequence (Q13464 whole entry): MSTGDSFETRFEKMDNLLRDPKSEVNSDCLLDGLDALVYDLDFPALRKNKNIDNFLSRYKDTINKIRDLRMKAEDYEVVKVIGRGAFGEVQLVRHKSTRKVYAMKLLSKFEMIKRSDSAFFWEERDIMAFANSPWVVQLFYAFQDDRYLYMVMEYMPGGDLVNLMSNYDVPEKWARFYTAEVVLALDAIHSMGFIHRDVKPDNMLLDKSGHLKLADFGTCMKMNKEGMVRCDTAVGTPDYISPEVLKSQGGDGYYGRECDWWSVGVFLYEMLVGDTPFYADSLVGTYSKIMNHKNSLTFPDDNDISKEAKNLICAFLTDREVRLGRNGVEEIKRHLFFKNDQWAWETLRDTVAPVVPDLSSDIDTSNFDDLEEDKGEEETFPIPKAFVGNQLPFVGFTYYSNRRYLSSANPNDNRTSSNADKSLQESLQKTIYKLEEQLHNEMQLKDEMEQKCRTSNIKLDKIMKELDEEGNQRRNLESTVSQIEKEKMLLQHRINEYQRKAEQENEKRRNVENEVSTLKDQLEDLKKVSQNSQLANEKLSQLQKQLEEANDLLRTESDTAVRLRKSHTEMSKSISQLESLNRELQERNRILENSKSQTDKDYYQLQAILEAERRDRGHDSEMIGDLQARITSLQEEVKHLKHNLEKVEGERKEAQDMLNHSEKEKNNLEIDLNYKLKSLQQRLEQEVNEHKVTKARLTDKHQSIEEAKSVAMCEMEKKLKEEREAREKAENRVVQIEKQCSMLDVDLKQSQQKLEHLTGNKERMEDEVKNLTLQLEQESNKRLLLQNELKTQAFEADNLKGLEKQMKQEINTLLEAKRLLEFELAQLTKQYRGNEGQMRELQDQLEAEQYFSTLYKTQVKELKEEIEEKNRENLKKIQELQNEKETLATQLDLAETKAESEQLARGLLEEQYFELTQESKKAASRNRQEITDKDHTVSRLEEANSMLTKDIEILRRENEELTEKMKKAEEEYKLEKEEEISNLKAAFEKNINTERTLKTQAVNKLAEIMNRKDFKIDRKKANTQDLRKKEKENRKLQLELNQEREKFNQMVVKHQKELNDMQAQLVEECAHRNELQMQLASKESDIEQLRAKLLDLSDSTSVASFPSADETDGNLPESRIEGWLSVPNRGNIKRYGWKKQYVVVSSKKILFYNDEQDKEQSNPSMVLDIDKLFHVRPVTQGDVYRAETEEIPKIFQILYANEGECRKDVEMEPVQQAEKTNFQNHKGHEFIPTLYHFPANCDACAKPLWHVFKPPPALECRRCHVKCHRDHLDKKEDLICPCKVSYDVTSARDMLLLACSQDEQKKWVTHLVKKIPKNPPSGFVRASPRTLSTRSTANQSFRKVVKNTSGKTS

| IC50 [1] | IC50 [2] | SMILES |
| --- | --- | --- |
| 16 nM |  | N[C@@H](C(=O)Nc1ccc2c(c1)OCc1cnccc1-2)c1ccccc1 |
| 140 nM |  | O=C(Cc1ccccc1)Nc1ccc2c(c1)OCc1cnccc1-2 |
| 71 nM |  | N[C@@H](COc1ccc2c(c1)OCc1cnccc1-2)Cc1ccccc1 |
| 18 nM |  | C[C@@H](NC(=O)c1ccc2c(c1)OCc1cnccc1-2)c1ccccc1 |
| 2 nM |  | CCC1Oc2cnccc2-c2ccc(C(=O)N[C@H](C)c3cccc(OC)c3)cc21 (stereo in doubt; 18) |
| 19 nM |  | N[C@H](Cc1ccccc1)C(=O)Nc1ccc2c(c1)OCc1cnccc1-2 |
| 0.63 nM |  | CCC1Oc2cnccc2-c2ccc(C(=O)N[C@H](C)c3cccc(OC)c3)cc21 (mixture of isomers) |
| 27 nM |  | COc1cccc(C(C)NC(=O)c2ccc3c(c2)OCc2cnccc2-3)n1 (configuration not stated) |
| 0.67 nM |  | CCC1Oc2cnccc2-c2ccc(C(=O)N[C@H](C)c3cccc(OC)c3)cc21 (stereo in doubt; 19) |

Second part, the compound before the results:

| SMILES | IC50 [1] | IC50 [2] |
| --- | --- | --- |
| COc1cccc([C@@H](C)NC(=O)c2ccc3c(c2)OC(C)c2cnccc2-3)c1 (mixture of isomers) | 15 nM |  |
| C[C@H]1CNCCCN1S(=O)(=O)c1cccc2cncc(F)c12 |  | 20 nM |
| COc1cccc([C@@H](C)NC(=O)c2ccc3c(c2)COc2cnc(N)cc2-3)c1 | 171 nM |  |
| COc1cccc([C@@H](C)NC(=O)c2ccc3c(c2)COc2cncnc2-3)c1 | 38 nM |  |
| CCNC(=O)c1cc(CNC(=O)c2ccc3c(c2)C(CC)Oc2cnccc2-3)ccc1F (racemic) | 20 nM |  |
| COc1cccc([C@@H](C)NC(=O)c2ccc3c(c2)C(C)Oc2cnccc2-3)c1 (some centres not stated) | 0.49 nM |  |
| COc1cccc([C@@H](C)NC(=O)c2ccc3c(c2)C(C2CC2)Oc2cnccc2-3)c1 (some centres not stated) | 4.1 nM |  |
| CCN1CCC[C@H]1CNC(=O)c1cccc(CNC(=O)c2ccc3c(c2)C(C)Oc2cnccc2-3)c1 (mixture of isomers) | 1.2 nM |  |
